The supplement of paper PMC10307832

Tests used:
Experiment in all cases: relative viability (nuclei count vs DMSO), 5 days (fraction); higher = more cells survive
Midostaurin + AZD7762 = compound: CO[C@@H]1[C@H](N(C)C(=O)c2ccccc2)C[C@H]2O[C@]1(C)n1c3ccccc3c3c4c(c5c6ccccc6n2c5c31)C(=O)NC4 [Midostaurin] + NC(=O)Nc1cc(-c2cccc(F)c2)sc1C(=O)N[C@H]1CCCNC1 [AZD7762] (partner 0.2 µM)
Outline: (§1)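 Nuclei were stained with Hoechst during a one-step fixation (final 0.05% Triton X-100, 1% formaldehyde, 1 ug/ml Hoechst) carried out 5 days after dosing, then counted on 4× images. The cells, lung cancer lines in 1536-well plates, had been dosed by pin tool the day after seeding with one drug alone or a fixed anchor-drug dose plus five library-drug doses (not always all listed) in √10 steps. Relative viability is the nuclei count in treated wells divided by that in vehicle wells, and each value is the median of duplicate plates.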

Midostaurin + Vorinostat = compound: CO[C@@H]1[C@H](N(C)C(=O)c2ccccc2)C[C@H]2O[C@]1(C)n1c3ccccc3c3c4c(c5c6ccccc6n2c5c31)C(=O)NC4 [Midostaurin] + O=C(CCCCCCC(=O)Nc1ccccc1)NO [Vorinostat] (partner 1 µM)
Outline: as §1

[1] = compound: COc1cc(-c2nn([C@H]3CC[C@H](N4CCN(C(C)=O)CC4)CC3)c3ncnc(N)c23)ccc1NC(=O)c1cc2ccccc2n1C + COc1cc2c(Oc3ccc(NC(=O)C4(C(=O)Nc5ccc(F)cc5)CC4)cc3F)ccnc2cc1OCCCN1CCOCC1 [Foretinib] (partner 0.25 µM)
Outline: as §1

[2] = compound: COc1cc(-c2nn([C@H]3CC[C@H](N4CCN(C(C)=O)CC4)CC3)c3ncnc(N)c23)ccc1NC(=O)c1cc2ccccc2n1C + C[C@@H](Oc1cc(-c2cnn(C3CCNCC3)c2)cnc1N)c1c(Cl)ccc(F)c1Cl [Crizotinib] (partner 1 µM)
Outline: as §1

Midostaurin + Olaparib = compound: CO[C@@H]1[C@H](N(C)C(=O)c2ccccc2)C[C@H]2O[C@]1(C)n1c3ccccc3c3c4c(c5c6ccccc6n2c5c31)C(=O)NC4 [Midostaurin] + O=C(c1cc(Cc2n[nH]c(=O)c3ccccc23)ccc1F)N1CCN(C(=O)C2CC2)CC1 [Olaparib] (partner 8 µM)
Outline: as §1

Cell Line | relative viability (Midostaurin + AZD7762; first compound 0.01 µM) | relative viability (Midostaurin + AZD7762; first compound 0.03162 µM) | relative viability (Midostaurin + AZD7762; first compound 0.1 µM) | relative viability (Midostaurin + AZD7762; first compound 0.3162 µM) | relative viability (Midostaurin + Vorinostat; first compound 0.01 µM) | relative viability (Midostaurin + Vorinostat; first compound 0.03162 µM) | relative viability (Midostaurin + Vorinostat; first compound 0.1 µM) | relative viability (Midostaurin + Vorinostat; first compound 0.3162 µM) | relative viability ([1]; first compound 0.0128 µM) | relative viability ([1]; first compound 0.04048 µM) | relative viability ([1]; first compound 0.128 µM) | relative viability ([1]; first compound 1.28 µM) | relative viability ([2]; first compound 0.0128 µM) | relative viability ([2]; first compound 0.04048 µM) | relative viability ([2]; first compound 0.128 µM) | relative viability ([2]; first compound 1.28 µM) | relative viability (Midostaurin + Olaparib; first compound 0.01 µM) | relative viability (Midostaurin + Olaparib; first compound 0.03162 µM) | relative viability (Midostaurin + Olaparib; first compound 0.1 µM) | relative viability (Midostaurin + Olaparib; first compound 0.3162 µM)
NCI-H1755 | 0.492 | 0.422 | 0.447 | 0.402 | 0.748 | 0.809 | 0.715 | 0.783 | 1.02 | 0.87 | 0.833 | 0.885 | 1 | 0.795 | 0.875 | 0.616 | 0.864 | 0.884 | 0.783 | 0.779
NCI-H1915 | 0.654 | 0.679 | 0.671 | 0.709 | 0.447 | 0.487 | 0.576 | 0.513 | 1.14 | 1.03 | 1.06 | 0.844 | 0.87 | 0.942 | 0.866 | 0.869 | 0.257 | 0.249 | 0.243 | 0.224
NCI-H1944 | 0.507 | 0.616 | 0.493 | 0.56 | 0.528 | 0.595 | 0.496 | 0.453 | 0.87 | 0.786 | 0.832 | 0.61 | 1.12 | 1.14 | 1.02 | 0.787 | 0.388 | 0.433 | 0.402 | 0.429
NCI-H1975 | 0.818 | 0.756 | 0.673 | 0.654 | 0.695 | 0.706 | 0.574 | 0.416 | 0.887 | 0.912 | 0.918 | 0.481 | 0.869 | 1.18 | 0.966 | 0.424 | 0.733 | 0.677 | 0.701 | 0.466
NCI-H1993 | 0.762 | 0.77 | 0.699 | 0.5 | 0.83 | 0.782 | 0.87 | 0.38 | 0.747 | 0.743 | 0.784 | 0.556 | 0.925 | 0.902 | 0.803 | 0.645 | 1.08 | 0.791 | 1.01 | 1.11
NCI-H2085 | 0.938 | 0.998 | 0.93 | 0.623 | 0.79 | 0.783 | 0.822 | 0.637 | 1.12 | 0.876 | 0.834 | 0.691 | 0.86 | 0.912 | 0.977 | 0.695 | 0.76 | 0.708 | 0.834 | 0.711
NCI-H2087 | 1.39 | 1.16 | 1.36 | 1.03 | 0.56 | 0.528 | 0.462 | 0.429 | 1.25 | – | 1.11 | 0.948 | 1.1 | 1 | 0.703 | 0.947 | 0.585 | 0.539 | 0.635 | 0.608
NCI-H2126 | 0.95 | 0.926 | 0.995 | 1.03 | 0.812 | 0.631 | 0.866 | 0.831 | 1.34 | 1 | 1.11 | 0.983 | 1.16 | 1.08 | 1.04 | 0.749 | 0.813 | 0.901 | 0.853 | 0.779
NCI-H2170 | 0.891 | 0.85 | 0.866 | 1.14 | 0.857 | 0.843 | 0.774 | 0.699 | 1.09 | 1.01 | 0.991 | 0.97 | 1.3 | 1.13 | 1.2 | 0.923 | 0.569 | 0.569 | 0.551 | 0.54
NCI-H2347 | 0.799 | 0.774 | 0.712 | 0.587 | 0.575 | 0.511 | 0.602 | 0.419 | 0.788 | 0.781 | 0.864 | 0.834 | 0.795 | 0.751 | 0.797 | 0.736 | 0.602 | 0.54 | 0.424 | 0.519
NCI-H2405 | 0.682 | 0.804 | 0.847 | 0.75 | 1.05 | 1.24 | 1.01 | 1.02 | 1.09 | 0.855 | 1.04 | 0.535 | 0.827 | – | 0.733 | 0.442 | 0.841 | 0.827 | 0.838 | 0.861
NCI-H3122 | 0.981 | 0.908 | 0.962 | 1.06 | 0.963 | 0.904 | 0.905 | 0.89 | 1.02 | – | 0.877 | 0.777 | 0.289 | – | 0.269 | 0.229 | 0.655 | 0.614 | 0.573 | 0.723
PC-3 [JPC-3] | 0.737 | 0.892 | 0.759 | 0.869 | 0.776 | 0.788 | 0.68 | 1.07 | 1.07 | 1.14 | 1 | 1.06 | 1.05 | 1.09 | 0.968 | 1.08 | 1.08 | 0.946 | 1.05 | 1.07
PC-14 | 0.33 | 0.42 | 0.329 | 0.328 | 0.719 | 0.673 | 0.67 | 0.666 | 0.956 | 1.06 | 0.885 | 0.979 | 0.941 | 0.98 | 0.965 | 0.87 | 0.328 | 0.281 | 0.206 | 0.199
RERF-LC-KJ | 0.994 | 0.96 | 1.05 | 1.03 | 0.715 | 0.709 | 0.67 | 0.646 | 0.867 | 0.957 | 0.838 | 0.864 | 0.897 | 0.914 | 0.742 | 0.846 | 0.819 | 0.839 | 0.814 | 0.716
